Values quoted from earlier work, collected in article PMC4537502 (Psychopharmacology, 2015).

How the values were obtained:
[1] = molecular target: sigma-1R; conditions: ref Sahlholm et al. [2013], cited from earlier work
[2] = molecular target: D2R; parameters: method as in Pettersson et al. [2010]; conditions: ref Pettersson et al. [2010]; read-out: high-affinity Ki at D2R; cited from earlier work
[3] = system: D2R; parameters: method as in Tolboom et al. [2015]; conditions: human subjects, ref Tolboom et al. [2015], cited from earlier work
[4] = system: striatal D2Rs; parameters: method as in Ekesbo et al. ([1999]); conditions: rhesus monkeys, continuous infusion 3 mg/kg/h, ref Ekesbo et al. ([1999]); cited from earlier work

CCCN1CCC[C@@H](c2cccc(S(C)(=O)=O)c2)C1 [(−)-OSU6162]
Ki ([1]; ^3H-(+)-pentazocine competition, read-out: high-affinity Ki at sigma-1R): ~0.36 µM
affinity for sigma-1R relative to D2R ([1]; Pettersson et al. [2010]): about two times higher affinity for sigma-1R than for D2R
Ki [2]: 0.76 µM
D2R occupancy ([3]; doses 15 to 90 mg (0.14 to 1.25 mg/kg)): 2 to 33%
level at which the dose-occupancy curve appeared to level off [3]: 40%
displacement of ^11C-raclopride [4]: 76%
